For 26 compounds, IC50 results are on record in patent publication US20200247812A1 (Integral Biosciences Private Limited, priority 2018, published 2020).

Each structure is given as a SMILES string. Some results are limits rather than exact numbers.

The experiment addresses T1, ALK 5 (Homo sapiens, UniProt P36897).
T1 sequence (P36897 34-503): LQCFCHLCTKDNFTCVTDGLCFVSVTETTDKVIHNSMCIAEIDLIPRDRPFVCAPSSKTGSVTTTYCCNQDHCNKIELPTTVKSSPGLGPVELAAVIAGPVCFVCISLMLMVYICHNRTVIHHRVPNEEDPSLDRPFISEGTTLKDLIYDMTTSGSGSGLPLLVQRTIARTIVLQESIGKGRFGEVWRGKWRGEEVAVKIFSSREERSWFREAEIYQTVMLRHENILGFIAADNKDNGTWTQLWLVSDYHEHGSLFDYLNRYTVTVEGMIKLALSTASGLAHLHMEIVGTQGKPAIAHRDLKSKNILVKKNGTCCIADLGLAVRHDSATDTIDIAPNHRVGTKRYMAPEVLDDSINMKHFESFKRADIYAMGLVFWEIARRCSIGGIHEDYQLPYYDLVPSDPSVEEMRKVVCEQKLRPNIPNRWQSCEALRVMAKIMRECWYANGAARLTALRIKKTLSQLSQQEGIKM
Briefly: In vitro kinase assay (ALK5 IC50, LanthaScreen Terbium labeled TR-FRET). The format is biochemical. The settings on record: TGF-β kinase 6 nM, ATP 10 μM, read-out: Enzyme Activity ALK 5 IC50. The protocol: Compounds of the invention were screened in an in vitro kinase assay against ALK 5, a members of the TGF-β family of Ser/Thr kinases. Standard kinase testing conditions and techniques were employed. IC50 values of compounds against TGF-ß kinase was determined by LanthaScreen™ Terbium Labeled TR-FRET assay. Kinase assays were performed in 1X kinase buffer (# PV6135, Invitrogen, Life Technologies Grand Island, N.Y.) where total reaction volume was 10 μL in low-volume 384-well plates (#4511, Corning). Serially diluted compounds (3-fold) were incubated with TGF-β kinase (6 nM) for 10 min, following which a mixture of ATP (10 μM) (# A1852, Sigma, St-Louis, Mo.) and fluorescent-PolyGT substrate (200 nM); Cat # PV3610, Invitrogen, Life Technologies Grand Island, N.Y.) was added and incubated in dark at room temperature for 1 h. After 1 h, 10 μL stop solution containing Terbium labeled antibody (4 nM; Cat # PV3529, Invitrogen, Life Technologies Grand Island, N.Y.) and EDTA (# E5134, Sigma, St-Louis, Mo.; 20 mM) in TR-FRET dilution buffer (Cat # PV3574, Invitrogen, Life Technologies Grand Island, N.Y.) was added. Readings were taken in a Synergy Neo Plate reader (BioTek, Winooski) at single excitation of 340 nm and Dual emission at 495 nm and 520 nm respectively.
The % activity of test samples was calculated as (Sample-Min)×100/(Max −Min). [Max: DMSO control, complete reaction with enzyme with DMSO and Min: No enzyme with DMSO]. Percent inhibition (100-% activity) was fitted to the “four-parameter logistic model” in XLfit for determination of IC50 values.
Take `CC(=O)Nc1cc(Nc2cc(-c3ccc(F)nc3)c(=O)[nH]c2C(C)C)ccn1` [Compound 1.51, N-(4-((6′-fluoro-6-isopropyl-2-oxo-1,2-dihydro-[3,3′-bipyridin]-5-yl)amino)pyridin-2-yl)acetamide]: the 50% inhibitory concentration (IC50) is above 5000 nM.
As for `NC(=O)c1cnccc1Nc1cc(-c2cc(Cl)ccc2F)c(=O)[nH]c1C1CC1` [Compound 1.74, 4-((5-(5-chloro-2-fluorophenyl)-2-cyclopropyl-6-oxo-1,6-dihydropyridin-3-yl)amino)nicotinamide], the figure is at most 500 nM; as for `COc1[nH]c(=O)c(-c2cc(Cl)ccc2F)cc1Nc1ccnc2ccncc12` [Compound 1.73, 5-((1,6-naphthyridin-4-yl)amino)-3-(5-chloro-2-fluorophenyl)-6-methoxypyridin-2(1H)-one], 500 to 2000 nM; as for `COc1[nH]c(=O)c(-c2cc(Cl)ccc2F)cc1Nc1ccnc2[nH]ccc12` [Compound 1.76, 5-((1H-pyrrolo[2,3-b]pyridin-4-yl)amino)-3-(5-chloro-2-fluorophenyl)-6-methoxypyridin-2(1H)-one], at most 500 nM.
With `Cc1cc(-c2cc(Nc3ncnc4c3CC(=O)N4)c(C(C)C)[nH]c2=O)ccc1F` [Compound 1.82, 4-((5-(4-fluoro-3-methylphenyl)-2-isopropyl-6-oxo-1,6-dihydropyridin-3-yl)amino)-5,7-dihydro-6H-pyrrolo[2,3-d]pyrimidin-6-one], the IC50 lay within 2000 to 5000 nM.
Then `CC(C)c1[nH]c(=O)c(-c2ccsc2)cc1Nc1ccnc2ccncc12` [Compound 1.80, 5-((1,6-naphthyridin-4-yl)amino)-6-isopropyl-3-(thiophen-3-yl)pyridin-2(1H)-one], with 500 to 2000 nM; and `Cc1cnc(Nc2cc(Nc3cc(-c4cc(Cl)ccc4F)c(=O)[nH]c3C3CC3)ccn2)s1` [Compound 1.77, 3-(5-chloro-2-fluorophenyl)-6-cyclopropyl-5-((2-((5-methylthiazol-2-yl)amino)pyridin-4-yl)amino)pyridin-2(1H)-one], with 2000 to 5000 nM; and `O=c1[nH]c(C2CC2)c(Nc2ccnc3ccncc23)cc1-c1cc(Cl)ccc1F` [Compound 1.67, 5-((1,6-naphthyridin-4-yl)amino)-3-(5-chloro-2-fluorophenyl)-6-cyclopropylpyridin-2(1H)-one], with at most 500 nM.
On to `Cc1cccc(-c2cc(Nc3ccnc4[nH]ccc34)c(N(C)C)[nH]c2=O)n1` [Compound 1.13, 5′-((1H-pyrrolo[2,3-b]pyridin-4-yl)amino)-6′-(dimethylamino)-6-methyl-[2,3′-bipyridin]-2′(1′H)-one], for which the IC50 lay in the range of 2000 to 5000 nM.
As for `CC(C)c1[nH]c(=O)c(-c2cc(Cl)ccc2F)cc1Nc1ccnc(NC(=O)CN2CCOCC2)c1` [Compound 1.65, N-(4-((5-(5-chloro-2-fluorophenyl)-2-isopropyl-6-oxo-1,6-dihydropyridin-3-yl)amino)pyridin-2-yl)-2-morpholinoacetamide], the figure is above 5000 nM; as for `C[C@H](CO)NC(=O)c1cnccc1Nc1cc(-c2cc(Cl)ccc2F)c(=O)n2c1N(C)CC2` [Compound 1.23, (R)-4-((6-(5-chloro-2-fluorophenyl)-1-methyl-5-oxo-1,2,3,5-tetrahydroimidazo[1,2-a]pyridin-8-yl)amino)-N-(1-hydroxypropan-2-yl)nicotinamide], above 5000 nM; as for `CNC(=O)c1cnccc1Nc1cc(-c2cc(Cl)ccc2F)c(=O)[nH]c1N(C)C` [Compound 1.38, 4-((5-(5-chloro-2-fluorophenyl)-2-(dimethylamino)-6-oxo-1,6-dihydropyridin-3-yl)amino)-N-methylnicotinamide], 500 to 2000 nM.
As to `CC(C)c1[nH]c(=O)c(-c2cc(Cl)ccc2F)cc1Nc1ccnc(NC2CC2)c1` [Compound 1.55, 3-(5-chloro-2-fluorophenyl)-5-((2-(cyclopropylamino)pyridin-4-yl)amino)-6-isopropylpyridin-2(1H)-one], the IC50 was in the range of 2000 to 5000 nM.
Consider `CN(C)c1[nH]c(=O)c(-c2cc(Cl)ccc2F)cc1Nc1ccncc1F` [Compound 1.41, 3-(5-chloro-2-fluorophenyl)-6-(dimethylamino)-5-((3-fluoropyridin-4-yl)amino)pyridin-2 (1H)-one], for which the IC50 was in the range of 2000 to 5000 nM.
As to `C[C@H](O)CNC(=O)c1cnccc1Nc1cc(-c2cc(Cl)ccc2F)c(=O)n2c1N(C)CC2` [Compound 1.19, (S)-4-((6-(5-chloro-2-fluorophenyl)-1-methyl-5-oxo-1,2,3,5-tetrahydroimidazo[1,2-a]pyridin-8-yl)amino)-N-(2-hydroxypropyl)nicotinamide], the concentration for half-maximal inhibition (IC50) is 2000 to 5000 nM.
Then `CC(C)c1[nH]c(=O)c(-c2ccc(F)nc2)cc1Nc1ccnc2[nH]ccc12` [Compound 1.52, 5-((1H-pyrrolo[2,3-b]pyridin-4-yl)amino)-6′-fluoro-6-isopropyl-[3,3′-bipyridin]-2(1H)-one], with above 5000 nM; and `C[C@@H](CO)NC(=O)c1cnccc1Nc1cc(-c2cc(Cl)ccc2F)c(=O)n2c1N(C)CCC2` [Compound 1.21, (S)-4-((7-(5-chloro-2-fluorophenyl)-1-methyl-6-oxo-1,3,4,6-tetrahydro-2H-pyrido[1,2-a]pyrimidin-9-yl)amino)-N-(1-hydroxypropan-2-yl)nicotinamide], with 500 to 2000 nM.
In the case of `Cc1cccc(-c2cc(Nc3ccncc3C(=O)NC[C@H](C)O)c(N(C)C)[nH]c2=O)n1` [Compound 1.27, (S)-4-((6′-(dimethylamino)-6-methyl-2′-oxo-1′,2′-dihydro-[2,3′-bipyridin]-5′-yl)amino)-N-(2-hydroxypropyl)nicotinamide], the half-inhibitory concentration (IC50) is above 5000 nM.
Take `C[C@H](CO)NC(=O)c1cnccc1Nc1cc(-c2cc(Cl)ccc2F)c(=O)n2c1N(C)CCC2` [Compound 1.25, (R)-4-((7-(5-chloro-2-fluorophenyl)-1-methyl-6-oxo-1,3,4,6-tetrahydro-2H-pyrido[1,2-a]pyrimidin-9-yl)amino)-N-(1-hydroxypropan-2-yl)nicotinamide]: the concentration for half-maximal inhibition (IC50) is above 5000 nM.
Then `CC(C)c1[nH]c(=O)c(-c2ccc(F)c(Cl)c2)cc1Nc1ncnc2c1CC(=O)N2` [Compound 1.85, 4-((5-(3-chloro-4-fluorophenyl)-2-isopropyl-6-oxo-1,6-dihydropyridin-3-yl)amino)-5,7-dihydro-6H-pyrrolo[2,3-d]pyrimidin-6-one], with 500 to 2000 nM.
As for `C[C@H](O)CNC(=O)c1cnccc1Nc1cc(-c2cc(Cl)ccc2F)c(=O)n2c1N(C)CCC2` [Compound 1.20, (S)-4-((7-(5-chloro-2-fluorophenyl)-1-methyl-6-oxo-1,3,4,6-tetrahydro-2H-pyrido[1,2-a]pyrimidin-9-yl)amino)-N-(2-hydroxypropyl)nicotinamide], the figure is above 5000 nM; as for `CC(C)c1[nH]c(=O)c(-c2cc(Cl)ccc2F)cc1Nc1ccnc(NC(=O)CCC(F)(F)F)c1` [Compound 1.46, N-(4-((5-(5-chloro-2-fluorophenyl)-2-isopropyl-6-oxo-1,6-dihydropyridin-3-yl)amino)pyridin-2-yl)-4,4,4-trifluorobutanamide], above 5000 nM.
Then `CN(C)c1[nH]c(=O)c(-c2cc(Cl)ccc2F)cc1Nc1ccncc1` [Compound 1.14, 3-(5-chloro-2-fluorophenyl)-6-(dimethylamino)-5-(pyridin-4-ylamino)pyridin-2(1H)-one], with above 5000 nM; and `CC(=O)Nc1cc(N(C)c2cc(-c3cc(Cl)ccc3F)c(=O)[nH]c2C(C)C)ccn1` [Compound 1.66, N-(4-((5-(5-chloro-2-fluorophenyl)-2-isopropyl-6-oxo-1,6-dihydropyridin-3-yl)(methyl)amino)pyridin-2-yl)acetamide], with 500 to 2000 nM.
For the compound `CC(=O)Nc1cc(Nc2cc(-c3ccc(C(F)(F)F)nc3)c(=O)[nH]c2C(C)C)ccn1` [Compound 1.56, N-(4-((6-isopropyl-2-oxo-6′-(trifluoromethyl)-1,2-dihydro-[3,3′-bipyridin]-5-yl)amino)pyridin-2-yl)acetamide], the concentration for half-maximal inhibition (IC50) is above 5000 nM.
On to `CN(C)c1[nH]c(=O)c(-c2cc(Cl)ccc2F)cc1Nc1ccncc1C(=O)NC1CC1` [Compound 1.30, 4-((5-(5-chloro-2-fluorophenyl)-2-(dimethylamino)-6-hydroxypyridin-3-yl)amino)-N-cyclopropylnicotinamide], for which the IC50 is 2000 to 5000 nM.
